Measurements as given in US20110028758A1, “Trans-cinnamic acid derivative, its preparation mathod and the use” (priority 2007, published 2011).
≈ marks a conversion by molar mass, not a printed value. Like-named read-outs stand apart in the source and are kept apart here.

Experiments:
[1] = system: human normal embryonic kidney HEK-293 cells; assay: MTT test on normal cells, HEK-293; assay type: cell-based; settings: for IC50: Homo sapiens; for inhibitory effect on HEK-293 cells: at concentrations having 50% inhibitory effect on the tumor cells
Source text: (§1) A complete culture medium is used for diluting the above original solution into corresponding concentrations for later use.
(§2) Human cervical carcinoma Hela cells, human hepatoma BEL-7402 cells, mucinous Human epidermoid A549 lung cancer cells, human breast cancer MCF-7/S cells, human glioma U251 cells, and human normal embryonic kidney HEK-293 cells are purchased from USA, American Type Culture Collection (ATCC). All the tumor cells are used the DMEM medium (containing 10% FBS, 100 U/ml penicillin and 100 μg/ml streptomycin) for culturing and subculturing, and HEK-293 cells are using RPMI1640 medium (10% FBS, 100 U/ml penicillin, and 100 μg/ml streptomycin) for culturing and subculturing, wherein the culture condition is in a 5% CO2 incubator at 37° C.
Subculture six kinds of cells, which has a logarithmic growing period, adherent rate about 80%, and in good condition, such as human cervical carcinoma Hela cells, human hepatoma BEL-7402 cells, mucinous Human epidermoid A549 lung cancer cells, human breast cancer MCF-7/S cells, human glioma U251 cells, and human normal embryonic kidney HEK-293 cells. […] Repeat the above experiment three times to get an average value.
(§3) IR %=(1−ODsampale/ODcontrol)×100%

[2] = system: mucinous Human epidermoid A549 lung cancer cells; assay: MTT anti-tumor test in vitro, A549; assay type: cell-based; settings: Homo sapiens, A549, 48 h
Source text: as §1, §2
(§4) Subculture six kinds of cells, which has a logarithmic growing period, adherent rate about 80%, and in good condition, such as human cervical carcinoma Hela cells, human hepatoma BEL-7402 cells, mucinous Human epidermoid A549 lung cancer cells, human breast cancer MCF-7/S cells, human glioma U251 cells, and human normal embryonic kidney HEK-293 cells. Discard the culture medium, rinse 1-2 times with PBS to remove serum, add 1 ml 0.25% Trypsin-0.01% EDTA (37° C. incubation) to digest for 1-2 minutes, add FBS culture medium to terminate the above digestion, centrifuge at a speed below 800 r/min for 2-3 minutes and discard the supernatant, re-suspended cells in 10% FBS medium, tack the cell suspension liquid for cell counting, adjust the density of the above liquid to 1×10^5/ml, then inoculate to a 96-holes plates (100 μl/hole), and then incubate in 5% CO2 incubator at 37° C. overnight. The next day add above cells to different concentrations of I-a, I-b, I-c and I-d, 100 μl/hole (its final concentration is respectively 30, 60, 120, 240, 480 μg/ml); meanwhile, set up the blank control group (0 μM), and establish 3 holes. Continuing the cultural process, discard the culture medium after 48 hours that the drug has been effected, add 100 μl PBS of 0.5 mg/ml MTT (PH 7.2) into each holes, after 4 hours culture, remove the culture medium by adherent cells express flipping method, add 100 μl of DMSO to each holes, oscillate it by micro-oscillation device for 5 minutes, and measure the OD value at 490 nm wavelength. Repeat the above experiment three times to get an average value. Calculate the inhibition rate (IR %) of the tumor cell proliferation in vitro from different concentrations of I-a, I-b, I-c, I-d by the following formula:
as §3
(§5) Use SPSS11.5 software to calculate the half inhibitory concentration IC50 of I-a, I-b, I-c and I-d. The results are shown in Table 2 to illustrate IC50 values (unit: μg/ml) of the four compounds.

[3] = system: human glioma U251 cells; assay: MTT anti-tumor test in vitro, U251; assay type: cell-based; settings: Homo sapiens, U-251, 48 h
Source text: as §1, §2, §4, §3, §5

[4] = system: human breast cancer MCF-7/S cells; assay: MTT anti-tumor test in vitro, MCF-7/S; assay type: cell-based; settings: Homo sapiens, MCF7S, 48 h, MCF-7 (MCF-7/S)
Source text: as §1, §2, §4, §3, §5

[5] = system: mice ascites hepatoma cell strain H22; assay: Anti-tumor test in vivo, mice transplanted tumor of liver cancer H22; parameters: species or system Kunming mice
Description: The mice ascites hepatoma cell strain H22 is purchased from the Experimental Center of Zhongshan University.
Recovery the mice ascites hepatoma cell strain H22, put the cell suspension liquid into a centrifugal tube and use the 4° C. saline to wash the suspension liquid twice, then centrifuge to discard the supernatant, add appropriate 4° C. saline to dilute the suspension liquid, count cells with 0.2% trypan blue, adjust the density to 10^7 cell/ml, according to 0.2 (ml/mice) intraperitoneal inoculation H22 cell suspension liquid.
After ten days of the intraperitoneal inoculation, the cervical vertebra is dislocated. Disinfect the mice abdominal skin, and suck the milky ascites with a sterile syringe, then adjust the concentration of tumor cells to 1×10^7 cell/ml with injection used saline. Disinfect the right armpit skin of the Kunming mice with alcohol swab, subcutaneously vaccinate the cell suspension liquid 0.2 ml, conventional feeding. […] Totally there are 180 tumor-bearing mice.
The 180 tumor-bearing mice are divided into 18 groups by the weigh of the mice, wherein each group has 10 mice (half male and half female). The drug delivery methods of each group are shown in Table 3 to illustrate eighteen groups of mice drug delivery situation.
Group 1 is the model group, and the mice of group 1 are given the tail vein saline injection daily started on the second day of the tumor-bearing for 10 days.
Group 2 is the cyclophosphamide (CTX) group, and the mice of group 2 are only given the cyclophosphamide in the intraperitoneal of the mice on the second day of the tumor-bearing.
Group 3 to 18 groups are given the four compounds respectively, wherein the groups delivered 25 mg/kg drug are tail vein low-dose group, wherein the groups delivered 50 mg/kg drugs are the tail vein medium-dose group, wherein the groups delivered 100 mg/kg drugs are the tail vein high-dose group, wherein the groups delivered 200 mg/kg drugs are the oral enteral group. These mice from group 3 to 18 start the drug delivery on the second day of the tumor-bearing, and delivered once a day for 10 sequent days.
The above drug deliveries are 20 ml/kg.
After finishing the drug delivery process, weight the mice, then kill the mice by pulling off the neck, and anatomy to get the tumor tissue of the mice on the next day of finishing the drug delivery process, and then weight the anatomized tumor by electronic weighing scales to calculate the inhibition rate.

[6] = system: human cervical carcinoma Hela cells; assay: MTT anti-tumor test in vitro, Hela; assay type: cell-based; settings: Homo sapiens, HeLa, 48 h
Source text: as §1, §2, §4, §3, §5

[7] = HEK293, 48 h, HEK- (HEK-293), average of three experiments ± SD, MTT, 48 hours, read-out: IC50 value
[8] = HEK293, 48 h, HEK- (HEK-293), experiment 1, MTT, 48 hours, read-out: IC50 value
[9] = HEK293, 48 h, HEK- (HEK-293), experiment 2, MTT, 48 hours, read-out: IC50 value
[10] = HEK293, 48 h, HEK- (HEK-293), experiment 3, MTT, 48 hours, read-out: IC50 value
[11] = HEK293, text, read-out: HEK-293 cells IC50 values
[12] = A549, average of three experiments ± SD, MTT, 48 hours, read-out: IC50 value
[13] = A549, experiment 1, MTT, 48 hours, read-out: IC50 value
[14] = A549, experiment 2, MTT, 48 hours, read-out: IC50 value
[15] = A549, experiment 3, MTT, 48 hours, read-out: IC50 value
[16] = at 48 hours, read-out: A549 cell proliferation IC50 values
[17] = average of three experiments ± SD
[18] = i.g. 200 mg·(kg·d)^−1, once a day for 10 days
[19] = i.v. 25 mg·(kg·d)^−1, once a day for 10 days
[20] = i.v. 25 mg·(kg·d)^−1, once a day for 10 days (low-dose group)
[21] = i.v. 50 mg·(kg·d)^−1, once a day for 10 days
[22] = i.v. 100 mg·(kg·d)^−1, once a day for 10 days
[23] = Hela, average of three experiments ± SD, MTT, 48 hours, read-out: IC50 value
[24] = Hela, experiment 1, MTT, 48 hours, read-out: IC50 value
[25] = Hela, experiment 2, MTT, 48 hours, read-out: IC50 value
[26] = Hela, experiment 3, MTT, 48 hours, read-out: IC50 value
[27] = read-out: HeLa cell proliferation IC50 values
[28] = i.v. 50 mg·(kg·d)^−1, once a day for 10 days (medium-dose group)

| SMILES | IC50 [1, 7] [mg/L] | IC50 [1, 9] [mg/L] | IC50 [1, 10] [mg/L] | IC50 [2, 12] [mg/L] | IC50 [2, 14] [mg/L] | IC50 [2, 15] [mg/L] | IC50 [2, 16] [mg/L] | IC50 [3, 17] [mg/L] | IC50 ([3]; experiment 2) [mg/L] | IC50 ([3]; experiment 3) [mg/L] | IC50 [4, 17] [mg/L] | IC50 ([4]; experiment 2) [mg/L] | IC50 ([4]; experiment 3) [mg/L] | Tumor weight/g [5, 18] [g] | Tumor weight/g [5, 19] [g] | IR/% (inhibition rate) [5, 20] [%] | Tumor weight/g [5, 21] [g] | Tumor weight/g [5, 22] [g] | IC50 [6, 23] [mg/L] | IC50 [6, 25] [mg/L] | further results |
| --- | --- | --- | --- | --- | --- | --- | --- | --- | --- | --- | --- | --- | --- | --- | --- | --- | --- | --- | --- | --- | --- |
| COc1ccc(/C=C/C(=O)O)c(OC)c1CC=C(C)C [I-c, (E)-2,4-dimethoxy-3-isopentenyl-cinnamic acid] | 369 ± 13.6 (≈ 1340 µM) | 367 (≈ 1330 µM) | 356 (≈ 1290 µM) | 158 ± 5.66 (≈ 572 µM) | 162 (≈ 586 µM) | 159 (≈ 575 µM) | 158 ± 5.66 (≈ 572 µM) | 195 ± 7.31 (≈ 704 µM) | 192 (≈ 695 µM) | 188 (≈ 680 µM) | 235 ± 5.68 (≈ 849 µM) | 229 (≈ 829 µM) | 240 (≈ 869 µM) | 0.866 ± 0.489 | 1.322 ± 0.278 | 13.7 | 0.875 ± 0.379 | 0.782 ± 0.368 | 96.2 ± 1.25 (≈ 348 µM) | 85.6 (≈ 310 µM) | IC50 [1, 8]: 383 mg/L (≈ 1390 µM); IC50 [1, 11]: 369 ± 13.6 mg/L (≈ 1340 µM); inhibitory effect on HEK-293 cells [1]: unobvious; IC50 [2, 13]: 151 mg/L (≈ 546 µM); IC50 ([3]; experiment 1): 202 mg/L (≈ 731 µM); IC50 ([4]; experiment 1): 234 mg/L (≈ 847 µM); IC50 [6, 24]: 95 mg/L (≈ 344 µM); IC50 [6, 26]: 97 mg/L (≈ 351 µM); IC50 [6, 27]: 96.2 ± 1.25 mg/L (≈ 348 µM) |
| COc1ccc(/C=C/C(=O)O)c(O)c1CC=C(C)C [I-a, (E)-2-hydroxy-4-methoxy-3-isopentenyl-cinnamic acid] | 404 ± 9.2 (≈ 1540 µM) | 399 (≈ 1520 µM) | 414 (≈ 1580 µM) | 118 ± 10.6 (≈ 451 µM) | 118 (≈ 450 µM) | 107 (≈ 408 µM) | 118 ± 10.6 (≈ 451 µM) | 181 ± 7.98 (≈ 691 µM) | 173 (≈ 660 µM) | 180 (≈ 686 µM) | 225 ± 11.9 (≈ 857 µM) | 216 (≈ 823 µM) | 219 (≈ 835 µM) | 0.907 ± 0.424 | 1.398 ± 0.355 | 8.8 | 1.047 ± 0.342 | 0.775 ± 0.381 | 103 ± 8.48 (≈ 391 µM) | 115 (≈ 438 µM) | IC50 [1, 11]: 404 ± 9.2 mg/L (≈ 1540 µM); inhibitory effect on HEK-293 cells [1]: unobvious; IR/% (inhibition rate) [5, 28]: 31.7%; IC50 [6, 26]: 96 mg/L (≈ 366 µM); IC50 [6, 27]: 103 ± 8.48 mg/L (≈ 391 µM) |
| COc1ccc(/C=C\C(=O)O)c(OC)c1CC=C(C)C [I-b, (Z)-2,4-dimethoxy-3-isopentenyl-cinnamic acid] | 365 ± 6.14 (≈ 1320 µM) | 371 (≈ 1340 µM) | 366 (≈ 1320 µM) | 218 ± 12.6 (≈ 788 µM) | 216 (≈ 782 µM) | 205 (≈ 742 µM) | 218 ± 12.6 (≈ 788 µM) | 287 ± 9.58 (≈ 1040 µM) | 284 (≈ 1030 µM) | 298 (≈ 1080 µM) | 311 ± 7.31 (≈ 1130 µM) | 317 (≈ 1150 µM) | 303 (≈ 1100 µM) | 1.108 ± 0.364 | 1.367 ± 0.524 | 10.8 | 1.152 ± 0.47 | 0.911 ± 0.417 | 324 ± 11.6 (≈ 1170 µM) | 310 (≈ 1120 µM) | IC50 [1, 8]: 358 mg/L (≈ 1300 µM); IC50 [2, 13]: 230 mg/L (≈ 832 µM); IC50 ([3]; experiment 1): 277 mg/L (≈ 1000 µM); IC50 ([4]; experiment 1): 312 mg/L (≈ 1130 µM); IR/% (inhibition rate) [5, 28]: 24.8%; IC50 [6, 24]: 331 mg/L (≈ 1200 µM); IC50 [6, 26]: 328 mg/L (≈ 1190 µM); IC50 [6, 27]: 324 ± 11.6 mg/L (≈ 1170 µM) |
